# Results reported in ChEMBL document CHEMBL3045075, “Synthesis of ester and amide derivatives of 1-phenyl-3-(thiophen-3-yl)-1H-pyrazole-4-carboxylic acid and study of their anticancer activity” (Med Chem Res, 2013).
# Active and inactive are the calls of the source. The calls are words filed in the database; no cut-off is given here.
# What was measured:
# Raji = assay: Growth inhibition of Homo sapiens (human) Raji cells after 48 hr by MTT assay; format: functional, cell-based
# HL-60 [1] = assay: Growth inhibition of Homo sapiens (human) HL60 cells after 48 hr by MTT assay; format: functional, cell-based; conditions: HL-60, 48 h
# MDA-MB-231 [2] = assay: Anticancer activity against Homo sapiens (human) MDA-MB-231 cells assessed as cell viability at 50 uM after 48 hr by MTT assay (reference value: 100%); format: functional; conditions: MDA-MB-231, 48 h, read-out: Activity
# MDA-MB-231 [3] = assay: Growth inhibition of Homo sapiens (human) MDA-MB-231 cells after 48 hr by MTT assay; format: functional, cell-based
# MCF7 [4] = assay: Growth inhibition of Homo sapiens (human) MCF7 cells after 48 hr by MTT assay; format: functional, cell-based
# HeLa [5] = assay: Growth inhibition of Homo sapiens (human) HeLa cells after 48 hr by MTT assay; format: functional, cell-based
# HeLa [6] = assay: Anticancer activity against Homo sapiens (human) HeLa cells assessed as cell viability at 50 uM after 48 hr by MTT assay (reference value: 100%); format: functional; conditions: read-out: Activity
# MCF7 [7] = assay: Anticancer activity against Homo sapiens (human) MCF7 cells assessed as cell viability at 50 uM after 48 hr by MTT assay (reference value: 100%); format: functional; conditions: MCF7, 48 h, read-out: Activity
# HL-60 [8] = assay: Anticancer activity against Homo sapiens (human) HL60 cells assessed as cell viability at 50 uM after 48 hr by MTT assay (reference value: 100%); format: functional; conditions: HL-60, 48 h, read-out: Activity
smiles,measurement,setting,value
O=C(c1cn(-c2ccccc2)nc1-c1ccsc1)N1CCOCC1,IC50,Raji,> 100 µM
same,IC50,HL-60 [1],> 100 µM
same,viability at 50 µM,MDA-MB-231 [2],77.6%
O=C(c1cn(-c2ccccc2)nc1-c1ccsc1)N1CCN(c2ccncc2)CC1,IC50,Raji,> 100 µM
same,IC50,HL-60 [1],> 100 µM
same,viability at 50 µM,MDA-MB-231 [2],87.4%
O=C(Oc1ccc2ccccc2c1)c1cn(-c2ccccc2)nc1-c1ccsc1,IC50,Raji,> 100 µM
same,growth inhibition (GI),MDA-MB-231 [3],inactive
same,IC50,HL-60 [1],> 100 µM
same,growth inhibition (GI),MCF7 [4],inactive
same,growth inhibition (GI),HeLa [5],inactive
CN1CCN(C(=O)c2cn(-c3ccccc3)nc2-c2ccsc2)CC1,IC50,Raji,> 100 µM
same,IC50,HL-60 [1],> 100 µM
Cc1cccc(C(C)C)c1OC(=O)c1cn(-c2ccccc2)nc1-c1ccsc1,IC50,Raji,> 100 µM
same,growth inhibition (GI),MDA-MB-231 [3],inactive
same,IC50,HL-60 [1],> 100 µM
same,growth inhibition (GI),MCF7 [4],inactive
same,growth inhibition (GI),HeLa [5],inactive
CC(C)c1cccc(OC(=O)c2cn(-c3ccccc3)nc2-c2ccsc2)c1,IC50,Raji,> 100 µM
same,growth inhibition (GI),MDA-MB-231 [3],inactive
same,IC50,HL-60 [1],> 100 µM
same,growth inhibition (GI),MCF7 [4],inactive
same,growth inhibition (GI),HeLa [5],inactive
O=C(Oc1ccc(-c2ccccc2)cc1)c1cn(-c2ccccc2)nc1-c1ccsc1,IC50,Raji,> 100 µM
same,growth inhibition (GI),MDA-MB-231 [3],inactive
same,IC50,HL-60 [1],> 100 µM
same,growth inhibition (GI),MCF7 [4],inactive
same,growth inhibition (GI),HeLa [5],inactive
O=C(c1cn(-c2ccccc2)nc1-c1ccsc1)N1CCN(c2ccc(C(F)(F)F)cc2)CC1,GI50,Raji,32 µM
same,viability at 50 µM,HeLa [6],80.7%
same,GI50,HL-60 [1],36.7 µM
same,viability at 50 µM,MDA-MB-231 [2],84.2%
same,viability at 50 µM,MCF7 [7],85.9%
CCc1ccc(OC(=O)c2cn(-c3ccccc3)nc2-c2ccsc2)cc1,IC50,Raji,> 100 µM
same,growth inhibition (GI),MDA-MB-231 [3],inactive
same,IC50,HL-60 [1],> 100 µM
same,growth inhibition (GI),MCF7 [4],inactive
same,growth inhibition (GI),HeLa [5],inactive
O=C(NCc1ccccc1)c1cn(-c2ccccc2)nc1-c1ccsc1,viability at 50 µM,HeLa [6],82.3%
same,viability at 50 µM,MDA-MB-231 [2],85%
O=C(c1cn(-c2ccccc2)nc1-c1ccsc1)N1CCC(Cc2ccccc2)CC1,GI50,Raji,25.2 µM
same,viability at 50 µM,HeLa [6],71.8%
same,GI50,HL-60 [1],28.3 µM
same,viability at 50 µM,MDA-MB-231 [2],82.8%
same,viability at 50 µM,MCF7 [7],90.7%
same,viability at 50 µM,HL-60 [8],39.1%
O=C(O)c1cn(-c2ccccc2)nc1-c1ccsc1,IC50,Raji,> 100 µM
same,IC50,HL-60 [1],> 100 µM
same,viability at 50 µM,MDA-MB-231 [2],80.9%
O=C(c1cn(-c2ccccc2)nc1-c1ccsc1)N1CCN(c2ccccc2)CC1,viability at 50 µM,HeLa [6],67.9%
same,viability at 50 µM,MDA-MB-231 [2],81.4%
COc1ccc(OC(=O)c2cn(-c3ccccc3)nc2-c2ccsc2)cc1,IC50,Raji,> 100 µM
same,growth inhibition (GI),MDA-MB-231 [3],inactive
same,IC50,HL-60 [1],> 100 µM
same,growth inhibition (GI),MCF7 [4],inactive
same,growth inhibition (GI),HeLa [5],inactive
